# Reference: PMC8037182, “Solvothermal Synthesis of Multiple Dihydropyrimidinones at a Time as Inhibitors of Eg5” (Molecules, 2021)
# pIC50: −log10 of the molar value.
# Test system: L929 cell line
# Experiment: Cytotoxicity MTS assay, L929 cell line
# Format: cell-based
# Conditions: for OD490 values, Mean / OD490 values, Well 1 / OD490 values, Well 2 / OD490 values, Well 3: L929 cell line; for pIC50: MTS assay, 24 h exposure, ordinary fibroblast, not cancer cells
# Experimental: The positive compounds (IC50 < 100 μM) obtained from the primary Eg5 motor protein ATPase assay were tested for antiproliferative activity in vitro against Caco-2 cell line, Hela cell line, L929 cell line and T24 cell line by performing MTS assay. Cells were introduced into 96-well plates at a density of 1000 cells per well. After 24 h incubation, the cells were exposed with compounds at final concentrations ranging from 0.5 to 100 µM for 24 h. DMSO was used at a final concentration of 0.025% as blank control, monastrol was used as the positive control. Then 20 µL (CellTiter 96® AQueous One Solution Promega, Madison, WI, USA) reagent was added in each well. After 2 h at 37 °C in a 80% humidified, 5% CO2 atmosphere, the absorbance at 490 nm was recorded using a microplate reader (BIO-RAD iMark^TM). The results were obtained in three independent duplicate experiments. The primary data were shown in Supplementary Materials Tables S4–S7. The IC50 values for these compounds were calculated from a non-linear regression graph plotted between the percentage of cell viability and concentration with SPSS17.0 software.
smiles,measurement,setting,value
CCOc1ccccc1C1NC(=S)NC(C)=C1C(=O)Nc1ccc(Cl)cc1 (centres unmarked) [C9],"OD490 values, Mean","0.5μM, first assay",1.3120
same,"OD490 values, Well 1","0.5μM, first assay",1.2051
same,"OD490 values, Well 2","0.5μM, first assay",1.4334
same,"OD490 values, Well 3","0.5μM, first assay",1.2976
same,"OD490 values, Mean","0.5μM, second assay",1.7414
same,"OD490 values, Well 1","0.5μM, second assay",1.7956
same,"OD490 values, Well 2","0.5μM, second assay",1.7365
same,"OD490 values, Well 3","0.5μM, second assay",1.6920
same,"OD490 values, Mean","0.5μM, third assay",1.5324
same,"OD490 values, Well 1","0.5μM, third assay",1.5628
same,"OD490 values, Well 2","0.5μM, third assay",1.4792
same,"OD490 values, Well 3","0.5μM, third assay",1.5552
same,"OD490 values, Mean","1μM, first assay",1.2882
same,"OD490 values, Well 1","1μM, first assay",1.1921
same,"OD490 values, Well 2","1μM, first assay",1.2906
same,"OD490 values, Well 3","1μM, first assay",1.3820
same,"OD490 values, Mean","1μM, second assay",1.7491
same,"OD490 values, Well 1","1μM, second assay",1.7526
same,"OD490 values, Well 2","1μM, second assay",1.7963
same,"OD490 values, Well 3","1μM, second assay",1.6985
same,"OD490 values, Mean","1μM, third assay",1.5501
same,"OD490 values, Well 1","1μM, third assay",1.5147
same,"OD490 values, Well 2","1μM, third assay",1.6354
same,"OD490 values, Well 3","1μM, third assay",1.5001
same,"OD490 values, Mean","10μM, first assay",1.2539
same,"OD490 values, Well 1","10μM, first assay",1.1842
same,"OD490 values, Well 2","10μM, first assay",1.1521
same,"OD490 values, Well 3","10μM, first assay",1.4254
same,"OD490 values, Mean","10μM, second assay",1.6826
same,"OD490 values, Well 1","10μM, second assay",1.6658
same,"OD490 values, Well 2","10μM, second assay",1.5966
same,"OD490 values, Well 3","10μM, second assay",1.7854
same,"OD490 values, Mean","10μM, third assay",1.5957
same,"OD490 values, Well 1","10μM, third assay",1.5987
same,"OD490 values, Well 2","10μM, third assay",1.6038
same,"OD490 values, Well 3","10μM, third assay",1.5847
same,"OD490 values, Mean","25μM, first assay",1.1905
same,"OD490 values, Well 1","25μM, first assay",1.1608
same,"OD490 values, Well 2","25μM, first assay",1.2406
same,"OD490 values, Well 3","25μM, first assay",1.1701
same,"OD490 values, Mean","25μM, second assay",1.4962
same,"OD490 values, Well 1","25μM, second assay",1.4563
same,"OD490 values, Well 2","25μM, second assay",1.5624
same,"OD490 values, Well 3","25μM, second assay",1.4698
same,"OD490 values, Mean","25μM, third assay",1.3392
same,"OD490 values, Well 1","25μM, third assay",1.3256
same,"OD490 values, Well 2","25μM, third assay",1.3332
same,"OD490 values, Well 3","25μM, third assay",1.3587
same,"OD490 values, Mean","50μM, first assay",1.0589
same,"OD490 values, Well 1","50μM, first assay",1.0389
same,"OD490 values, Well 2","50μM, first assay",1.0906
same,"OD490 values, Well 3","50μM, first assay",1.0471
same,"OD490 values, Mean","50μM, second assay",1.2280
same,"OD490 values, Well 1","50μM, second assay",1.2236
same,"OD490 values, Well 2","50μM, second assay",1.2635
same,"OD490 values, Well 3","50μM, second assay",1.1968
same,"OD490 values, Mean","50μM, third assay",1.1793
same,"OD490 values, Well 1","50μM, third assay",1.1416
same,"OD490 values, Well 2","50μM, third assay",1.2010
same,"OD490 values, Well 3","50μM, third assay",1.1952
same,"OD490 values, Mean","100μM, first assay",0.6738
same,"OD490 values, Well 1","100μM, first assay",0.6518
same,"OD490 values, Well 2","100μM, first assay",0.6916
same,"OD490 values, Well 3","100μM, first assay",0.6781
same,"OD490 values, Mean","100μM, second assay",0.7959
same,"OD490 values, Well 1","100μM, second assay",0.7856
same,"OD490 values, Well 2","100μM, second assay",0.7958
same,"OD490 values, Well 3","100μM, second assay",0.8062
same,"OD490 values, Mean","100μM, third assay",0.7698
same,"OD490 values, Well 1","100μM, third assay",0.8020
same,"OD490 values, Well 2","100μM, third assay",0.7321
same,"OD490 values, Well 3","100μM, third assay",0.7754
same,pIC50,"Mus musculus, L929",4.07
CCOC(=O)c1c(C2NC(=O)NC(C)=C2C(=O)Nc2ccccc2OC)[nH]c(C(=O)OC)c1C (centres unmarked) [D1],"OD490 values, Mean","0.5μM, first assay",1.3706
same,"OD490 values, Well 1","0.5μM, first assay",1.4101
same,"OD490 values, Well 2","0.5μM, first assay",1.3370
same,"OD490 values, Well 3","0.5μM, first assay",1.3648
same,"OD490 values, Mean","0.5μM, second assay",1.7900
same,"OD490 values, Well 1","0.5μM, second assay",1.7354
same,"OD490 values, Well 2","0.5μM, second assay",1.9532
same,"OD490 values, Well 3","0.5μM, second assay",1.6814
same,"OD490 values, Mean","0.5μM, third assay",1.6902
same,"OD490 values, Well 1","0.5μM, third assay",1.6425
same,"OD490 values, Well 2","0.5μM, third assay",1.7433
same,"OD490 values, Well 3","0.5μM, third assay",1.6847
same,"OD490 values, Mean","1μM, first assay",1.3549
same,"OD490 values, Well 1","1μM, first assay",1.3334
same,"OD490 values, Well 2","1μM, first assay",1.3850
same,"OD490 values, Well 3","1μM, first assay",1.3462
same,"OD490 values, Mean","1μM, second assay",1.7547
same,"OD490 values, Well 1","1μM, second assay",1.7965
same,"OD490 values, Well 2","1μM, second assay",1.7320
same,"OD490 values, Well 3","1μM, second assay",1.7355
same,"OD490 values, Mean","1μM, third assay",1.7249
same,"OD490 values, Well 1","1μM, third assay",1.7365
same,"OD490 values, Well 2","1μM, third assay",1.7452
same,"OD490 values, Well 3","1μM, third assay",1.6930
same,"OD490 values, Mean","10μM, first assay",1.3153
same,"OD490 values, Well 1","10μM, first assay",1.3870
same,"OD490 values, Well 2","10μM, first assay",1.3090
same,"OD490 values, Well 3","10μM, first assay",1.2498
same,"OD490 values, Mean","10μM, second assay",1.7648
same,"OD490 values, Well 1","10μM, second assay",1.6895
same,"OD490 values, Well 2","10μM, second assay",1.7985
same,"OD490 values, Well 3","10μM, second assay",1.8063
same,"OD490 values, Mean","10μM, third assay",1.7158
same,"OD490 values, Well 1","10μM, third assay",1.7235
same,"OD490 values, Well 2","10μM, third assay",1.7253
same,"OD490 values, Well 3","10μM, third assay",1.6985
same,"OD490 values, Mean","25μM, first assay",1.2680
same,"OD490 values, Well 1","25μM, first assay",1.2444
same,"OD490 values, Well 2","25μM, first assay",1.2849
same,"OD490 values, Well 3","25μM, first assay",1.2747
same,"OD490 values, Mean","25μM, second assay",1.6159
same,"OD490 values, Well 1","25μM, second assay",1.6525
same,"OD490 values, Well 2","25μM, second assay",1.5652
same,"OD490 values, Well 3","25μM, second assay",1.6301
same,"OD490 values, Mean","25μM, third assay",1.4383
same,"OD490 values, Well 1","25μM, third assay",1.5307
same,"OD490 values, Well 2","25μM, third assay",1.3321
same,"OD490 values, Well 3","25μM, third assay",1.4521
same,"OD490 values, Mean","50μM, first assay",1.2064
same,"OD490 values, Well 1","50μM, first assay",1.2251
same,"OD490 values, Well 2","50μM, first assay",1.1315
same,"OD490 values, Well 3","50μM, first assay",1.2627
same,"OD490 values, Mean","50μM, second assay",1.4454
same,"OD490 values, Well 1","50μM, second assay",1.4685
same,"OD490 values, Well 2","50μM, second assay",1.3855
same,"OD490 values, Well 3","50μM, second assay",1.4822
same,"OD490 values, Mean","50μM, third assay",1.3084
same,"OD490 values, Well 1","50μM, third assay",1.3124
same,"OD490 values, Well 2","50μM, third assay",1.3165
same,"OD490 values, Well 3","50μM, third assay",1.2962
same,"OD490 values, Mean","100μM, first assay",1.1038
same,"OD490 values, Well 1","100μM, first assay",1.1234
same,"OD490 values, Well 2","100μM, first assay",1.0461
same,"OD490 values, Well 3","100μM, first assay",1.1419
same,"OD490 values, Mean","100μM, second assay",1.2865
same,"OD490 values, Well 1","100μM, second assay",1.2022
same,"OD490 values, Well 2","100μM, second assay",1.2699
same,"OD490 values, Well 3","100μM, second assay",1.3874
same,"OD490 values, Mean","100μM, third assay",1.3217
same,"OD490 values, Well 1","100μM, third assay",1.4554
same,"OD490 values, Well 2","100μM, third assay",1.2165
same,"OD490 values, Well 3","100μM, third assay",1.2933
same,pIC50,,3.90
